Counter-ions that a name gives are not always drawn.
Legend:
[1] = target: ATM (Homo sapiens (Human), UniProt Q13315); assay: ATM in Cell Western Assay (pKAP1 in etoposide-treated MCF-7 cells); type: cell-based
Summary of the method: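 Cells received compounds in a 10-dose, 3-fold series from a 1 μM final top concentration, then 100 μM etoposide, for 1 hr at 37° C. They were then fixed with paraformaldehyde and permeabilized with 0.1% Triton X-100. After immunostaining, plates were scanned on an infrared imager.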

[2] = target: DNA-PK (Homo sapiens (Human), UniProt P78527); assay: DNA-PK Enzyme-Linked Immunosorbent Assay (phosphorylation of GST-p53 (1-101) peptide); type: biochemical; settings: ELISA
Summary of the method: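 ELISA with plate-bound GST-p53 (1-101) phosphorylated by DNA-PK (0.1 μg/mL final) with 20 μM ATP for 1 h at 25 °C. Compounds tested over 10 3-fold doses from 100 nM top final. Phospho-p53 Ser15 detected by antibody, HRP and TMB, absorbance at 450 nm.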

[3] = MCF-7 cells, etoposide 100 μM, 1 hr, pKAP1 readout
[4] = pKAP1 in etoposide-treated MCF-7 cells

ATM, sequence (Q13315 whole entry): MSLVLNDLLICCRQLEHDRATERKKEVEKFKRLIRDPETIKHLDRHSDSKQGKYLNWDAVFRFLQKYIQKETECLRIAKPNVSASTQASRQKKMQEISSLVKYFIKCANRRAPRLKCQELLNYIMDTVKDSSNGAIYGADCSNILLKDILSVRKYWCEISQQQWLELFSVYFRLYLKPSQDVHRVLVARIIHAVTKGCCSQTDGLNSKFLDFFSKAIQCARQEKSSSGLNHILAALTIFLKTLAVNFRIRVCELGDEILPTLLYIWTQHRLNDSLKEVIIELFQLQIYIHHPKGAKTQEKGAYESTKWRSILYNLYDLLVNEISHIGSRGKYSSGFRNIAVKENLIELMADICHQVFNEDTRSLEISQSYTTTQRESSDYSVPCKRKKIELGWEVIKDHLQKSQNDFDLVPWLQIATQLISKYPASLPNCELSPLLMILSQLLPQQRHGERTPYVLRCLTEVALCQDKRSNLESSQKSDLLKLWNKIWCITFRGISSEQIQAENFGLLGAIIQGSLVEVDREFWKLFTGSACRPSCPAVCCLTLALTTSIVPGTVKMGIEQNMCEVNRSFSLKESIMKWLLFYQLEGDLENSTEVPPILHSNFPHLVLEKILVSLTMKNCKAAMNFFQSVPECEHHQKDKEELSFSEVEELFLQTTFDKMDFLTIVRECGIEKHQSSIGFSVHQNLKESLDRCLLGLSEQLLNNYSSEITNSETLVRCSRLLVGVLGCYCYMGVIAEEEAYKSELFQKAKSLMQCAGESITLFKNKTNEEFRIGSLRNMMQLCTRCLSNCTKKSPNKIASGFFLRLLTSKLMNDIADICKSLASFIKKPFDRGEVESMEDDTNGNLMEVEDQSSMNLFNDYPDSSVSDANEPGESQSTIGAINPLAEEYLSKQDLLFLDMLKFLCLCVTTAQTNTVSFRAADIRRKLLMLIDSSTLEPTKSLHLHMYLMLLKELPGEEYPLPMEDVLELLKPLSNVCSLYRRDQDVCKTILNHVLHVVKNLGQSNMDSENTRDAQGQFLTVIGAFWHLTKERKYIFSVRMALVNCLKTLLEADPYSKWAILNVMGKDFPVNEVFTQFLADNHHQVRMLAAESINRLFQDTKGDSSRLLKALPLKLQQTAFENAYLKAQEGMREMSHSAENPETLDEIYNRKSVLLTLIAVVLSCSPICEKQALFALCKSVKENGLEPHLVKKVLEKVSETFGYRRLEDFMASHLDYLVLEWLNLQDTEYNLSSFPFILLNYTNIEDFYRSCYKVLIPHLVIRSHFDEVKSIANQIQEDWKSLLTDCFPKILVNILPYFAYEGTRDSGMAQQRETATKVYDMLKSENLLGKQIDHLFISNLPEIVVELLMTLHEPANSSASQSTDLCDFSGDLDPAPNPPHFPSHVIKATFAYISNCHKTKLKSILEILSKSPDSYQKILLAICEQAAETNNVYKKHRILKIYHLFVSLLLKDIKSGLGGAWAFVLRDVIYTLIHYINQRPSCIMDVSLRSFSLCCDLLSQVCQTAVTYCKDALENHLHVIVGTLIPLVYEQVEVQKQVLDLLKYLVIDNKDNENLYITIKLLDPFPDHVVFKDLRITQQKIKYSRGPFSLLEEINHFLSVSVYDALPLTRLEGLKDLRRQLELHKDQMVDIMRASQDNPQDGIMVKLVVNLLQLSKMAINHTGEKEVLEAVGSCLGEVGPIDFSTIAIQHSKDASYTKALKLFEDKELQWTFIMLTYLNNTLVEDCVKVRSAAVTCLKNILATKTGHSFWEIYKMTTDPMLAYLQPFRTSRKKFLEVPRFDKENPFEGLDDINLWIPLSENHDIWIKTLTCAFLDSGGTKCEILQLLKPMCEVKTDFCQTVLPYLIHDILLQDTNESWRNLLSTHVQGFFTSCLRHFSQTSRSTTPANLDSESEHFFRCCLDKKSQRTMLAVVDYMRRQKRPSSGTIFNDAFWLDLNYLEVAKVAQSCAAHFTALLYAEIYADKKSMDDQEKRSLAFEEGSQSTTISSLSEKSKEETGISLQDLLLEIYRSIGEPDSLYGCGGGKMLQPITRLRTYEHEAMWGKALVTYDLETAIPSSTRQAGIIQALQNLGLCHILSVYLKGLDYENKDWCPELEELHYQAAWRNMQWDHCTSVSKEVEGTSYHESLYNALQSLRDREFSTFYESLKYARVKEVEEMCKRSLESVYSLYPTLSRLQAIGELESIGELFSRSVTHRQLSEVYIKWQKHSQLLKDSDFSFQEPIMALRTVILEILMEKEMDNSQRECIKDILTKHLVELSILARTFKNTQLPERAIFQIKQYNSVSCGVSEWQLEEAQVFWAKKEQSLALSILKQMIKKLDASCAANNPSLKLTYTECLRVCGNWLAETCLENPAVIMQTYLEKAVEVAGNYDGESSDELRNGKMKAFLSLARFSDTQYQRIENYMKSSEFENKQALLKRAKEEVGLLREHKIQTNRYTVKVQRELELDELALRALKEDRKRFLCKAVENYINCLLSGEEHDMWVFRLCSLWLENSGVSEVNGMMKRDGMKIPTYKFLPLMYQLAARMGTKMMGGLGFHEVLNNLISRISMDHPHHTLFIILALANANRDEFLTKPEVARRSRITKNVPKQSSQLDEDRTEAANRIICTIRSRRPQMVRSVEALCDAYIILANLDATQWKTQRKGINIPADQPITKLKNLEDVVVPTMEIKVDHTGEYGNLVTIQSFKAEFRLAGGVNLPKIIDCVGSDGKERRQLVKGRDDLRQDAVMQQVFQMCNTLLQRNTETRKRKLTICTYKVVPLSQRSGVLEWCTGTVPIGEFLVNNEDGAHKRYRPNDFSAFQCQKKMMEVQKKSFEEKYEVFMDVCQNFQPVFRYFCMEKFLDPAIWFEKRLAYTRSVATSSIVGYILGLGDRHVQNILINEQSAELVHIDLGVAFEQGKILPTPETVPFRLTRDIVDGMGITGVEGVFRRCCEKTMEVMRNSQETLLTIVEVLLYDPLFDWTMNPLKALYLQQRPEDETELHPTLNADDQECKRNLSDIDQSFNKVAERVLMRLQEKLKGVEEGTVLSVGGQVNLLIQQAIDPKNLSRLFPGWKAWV

Row | IC50 [1, 3] [nM] | IC50 ([2]; ATP 20 μM) [nM] | IC50 [1, 4] [nM] | IC50 ([2]; 20 μM ATP) [nM] | SMILES
1 | 0.5 to 1 | < 0.5 | – | – | CN1C(=O)C2(CC2)c2c1cnc1ccc(-c3cnc(OCCCN4CCCCC4)c(NS(=O)(=O)c4ccccc4)c3)cc21 [Example 67, N-(5-(3′-Methyl-2′-oxo-2′,3′-dihydrospiro[cyclopropane-1,1′-pyrrolo[2,3-c]quinolin]-8′-yl)-2-(3-(piperidin-1-yl)propoxy)pyridin-3-yl)benzenesulfonamide]
2 | – | – | 0.5 to 1 | 0.5 to 1 | CN1C(=O)C2(CCC2)c2c1cnc1ccc(-c3cnc(N4CCC(N5CCOCC5)CC4)c(NS(C)(=O)=O)c3)cc21 [Example 357, N-(5-(3′-Methyl-2′-oxo-2′,3′-dihydrospiro[cyclobutane-1,1′-pyrrolo[2,3-c]quinolin]-8′-yl)-2-(4-morpholinopiperidin-l-yl)Pyridin-3-yl)methanesulfonamide hydrochloride]
3 | 1 to 100 | < 0.5 | – | – | CN1C(=O)C2(CC2)c2c1cnc1ccc(-c3cnc(OCCCN4CCCCC4)c(NS(=O)(=O)C4CC4)c3)cc21 [Example 68, N-(5-(3′-Methyl-2′-oxo-2′,3′-dibydrospiro[cyclopropane-1,1′-pyrrolo[2,3-c]quinolin]-8′-yl)-2-(3-(piperidin-1-yl)propoxy)pyridin-3-yl)cyclopropanesulfonamide]
4 | 1 to 100 | < 0.5 | – | – | CNCCOc1ncc(-c2ccc3ncc4c(c3c2)C2(CCC2)C(=O)N4C)cc1NS(C)(=O)=O [Example 249, N-(5-(3′-Methyl-2′-oxo-2′,3′-dihydrospiro[cyclobutane-1,1′-pyrrolo[2,3-c]quinolin]-8′-yl)-2-(2-(methylamino)ethoxy)pyridin-3-yl) methanesulfonamide]
5 | 1 to 100 | 1 to 100 | – | – | CN(C)CCCOc1ncc(-c2ccc3ncc4c(c3c2)C2(CCC2)C(=O)N4C)cc1NS(=O)(=O)N1CCCC1 [Example 244, N-(2-(3-(Dimethylamino)propoxy)-5-(3′-methyl-2′-oxo-2′,3′-dihydrospiro [cyclobutane-1,1′-pyrrolo[2,3-c]quinolin]-8′-yl)pyridin-3-yl)pyrrolidine-1-sulfonamide]
6 | 1 to 100 | < 0.5 | – | – | Cc1ncc(-c2ccc3ncc4c(c3c2)C2(CC2)C(=O)N4C)cc1NS(=O)(=O)c1ccccc1 [Example 24, N-(2-Methyl-5-(3′-methyl-2′-oxo-2′,3′-dihydrospiro[cyclopropane-1,1′-pyrrolo[2,3-c]quinolin]-8′-yl)pyridin-3-yl)benzenesulfonamide]
7 | < 0.5 | < 0.5 | – | – | CN1C(=O)C2(CCC2)c2c1cnc1ccc(-c3cnc(N4CCC(N(C)C)CC4)c(NS(=O)(=O)C4CC4)c3)cc21 [Example 173, N-(2-(4-(Dimethylamino)piperidin-1-yl)-5-(3′-methyl-2′-oxo-2′,3′-dihydrospiro[cyclobutane-1,1′-pyrrolo[2,3-c]quinolin]-8′-yl)pyridin-3-yl)cyclopropanesulfonamide]
8 | – | – | 1 to 100 | 1 to 100 | CC(C)NCCOc1ncc(-c2cc3c(cc2F)ncc2c3[C@]3(C[C@H](Nc4ccc(Cl)cc4)C3)C(=O)N2C)cc1NS(C)(=O)=O [Example 461, cis-N-(5-(3-((4-Chlorophenyl)amino)-7′-fluoro-3′-methyl-2′-oxo-2′,3′-dihydrospiro[cyclobutane-1,1′-pyrrolo[2,3-c]quinolin]-8′-yl)-2-(2-(isopropylamino)ethoxy)pyridin-3-yl)methanesulfonamide]
9 | 1 to 100 | 1 to 100 | – | – | CN(C)CCCOc1ncc(-c2ccc3ncc4c(c3c2)C2(CCC2)C(=O)N4C)cc1NS(=O)(=O)c1ccc(S(F)(F)(F)(F)F)cc1 [Example 134, N-(2-(3-(Dimethylamino)propoxy)-5-(3′-methyl-2′-oxo-2′,3′-dihydrospiro[cyclobulane-1,1′-pyrrolo[2,3-c]quinolin]-8′-yl)pyridin-3-yl)-4-(pentafluoro-16-sulfaneyl) benzenesulfonamide]
10 | 1 to 100 | 1 to 100 | – | – | COC1CCN(S(=O)(=O)Nc2cc(-c3ccc4ncc5c(c4c3)C3(CCC3)C(=O)N5C)cnc2OCCCN(C)C)CC1 [Example 187, N-(2-(3-(Dimethylamino)propoxy)-5-(3′-methyl-2′-oxo-2′,3′-dihydrospiro[cyclobulane-1,1′-pyrrolo[2,3-c]quinolin]-8′-yl)pyridin-3-yl)-4-methoxypiperidine-1-sulfonamide]
11 | – | – | 0.5 to 1 | 1 to 100 | CC(C)NCCOc1ncc(-c2cc3c(cc2F)ncc2c3[C@]3(C[C@H](Oc4ccccc4)C3)C(=O)N2C)cc1NS(C)(=O)=O [Example 400, cis-N-(5-(7′-Fluoro-3′-methyl-2′-oxo-3-phenoxy-2′,3′-dihydrospiro[cyclobutane-1,1′-pyrrolo[2,3-c]quinolin]-8′-yl)-2-(2-(isopropylamino)ethoxy)pyridin-3-yl)methanesulfonamide]
12 | – | – | 1 to 100 | 1 to 100 | CC(C)NCCOc1ncc(-c2cc3c4c(cnc3cc2F)N(C)C(=O)C42CCC2)cc1NS(=O)(=O)CCN(C)C [Example 375, 2-(Dimethylamino)-N-(5-(7′-fluoro-3′-methyl-2′-oxo-2′,3′-dihydrospiro[cyclobutane-1,1′-pyrrolo[2,3-c]quinolin]-8′-yl)-2-(2-(isopropylamino)ethoxy)pyridin-3-yl)ethane-1-sulfonamide hydrochloride]
13 | 0.5 to 1 | 1 to 100 | – | – | CN(C)CCCOc1ncc(-c2ccc3ncc4c(c3c2)C2(CCC2)C(=O)N4C)cc1NS(=O)(=O)CCN(C)C [Example 264, 2-(Dimethylamino)-N-(2-(3-(dimethylamino)propoxy)-5-(3′-methyl-2′-oxo-2′,3′-dihydrospiro[cyclobutane-1,1′-pyrrolo[2,3-c]quinolin]-8′-yl)pyridin-3-yl)ethane-1-sulfonamide]
14 | 1 to 100 | 0.5 to 1 | – | – | CCN(C)S(=O)(=O)Nc1cc(-c2ccc3ncc4c(c3c2)C2(CCC2)C(=O)N4C)cnc1OCCCN(C)C [Example 163, 8′-{6-[3-(Dimethylamino)propoxy]5-{[ethyl(methyl)sulfamoyl]amino}pyridin-3-yl}-3′-Methyl-2′,3′-dihydrospiro[cyclobutane-1,1′-pyrrolo[2,3-c]quinoline]-2′-one]
15 | – | – | 1 to 100 | < 0.5 | CC(C)NCCOc1ncc(-c2cc3c4c(cnc3cc2F)N(C)C(=O)C42CN(c3ccccc3F)C2)cc1NS(C)(=O)=O [Example 540, N-(5-(7′-Fluoro-1-(2-fluorophenyl)-3′-methyl-2′-oxo-2′,3′-dihydrospiro [azetidine-3,1′-pyrrolo[2,3-c]quinolin]-8′-yl)-2-(2-(isopropylamino)ethoxy)pyridin-3-yl)methanesulfonamide]
16 | – | – | 1 to 100 | 1 to 100 | CC(C)NCCOc1ncc(-c2cc3c(cc2F)ncc2c3[C@]3(C[C@H](Oc4ccccc4)C3)C(=O)N2C)cc1NS(=O)(=O)N(C)C [Example 402, cis-8′-{5-[(Dimethylsulfamoyl)amino]-6-{2-[(propan-2-ylamino]ethoxy}pyridine-3-yl}-7′-fluoro-3′-methyl-3-phenoxy-2′,3′-dihydrospiro[cyclobutane-1,1′-pyrrolo[2,3-c]quinoline]-2′-one hydrochloride]
17 | – | – | 1 to 100 | 0.5 to 1 | CC(C)NCCOc1ncc(-c2cc3c4c(cnc3cc2F)N(C)C(=O)C42CN(c3ccccc3Cl)C2)cc1NS(C)(=O)=O [Example 525, N-(5-(1-(2-Chlorophenyl)-7′ fluoro-3′-methyl-2′-oxo-2′,3′-dihydrospiro[azetidine-3,1′-pyrrolo[2,3-c]quinolin]-8′-yl)-2-(2-(isopropylamino)ethoxy)pyridin-3-yl)methanesulfonamide]

Source: US12187742B2 (XRAD Therapeutics, Inc., priority 2018, dated 2025)
